Experimental data as given in patent US9089486B2, “Process for the preparation of a pharmaceutical composition comprising ezetimibe” (LEK PHARMACEUTICALS D.D., priority 2009, dated 2015).
Like-named read-outs stand apart in the source and are kept apart here.

Legend:
[1] = Particle size of ezetimibe by Malvern Mastersizer; format: physicochemical; details: ezetimibe particles, lactose in the blend dissolved
Text: After mixing of blend 2 in a high shear mixer, a good particle distribution could be reached. The size of the ezetimibe particles was not essentially changed.

[2] = cited from earlier work; for solubility in ethanol, methanol, and acetone: organic solvents
[3] = ambient temperature; cited from earlier work

For `O=C1[C@H](CC[C@H](O)c2ccc(F)cc2)[C@@H](c2ccc(O)cc2)N1c1ccc(F)cc1` [Ezetimibe, ezetimibe], the “Particle size d(0.1)” value [1] was 0.43 μm, the “Particle size d(0.5)” value [1] was 7.54 μm and the “Particle size d(0.9)” value [1] was 16.87 μm. The “solubility in ethanol, methanol, and acetone” value [2] was “freely to very soluble”, the “solubility in ethanol, methanol, and acetone” value ([2]; listed as ezetimibe) was “soluble” and the solubility in water [2] was “practically insoluble”. The solubility in water ([2]; listed as ezetimibe) was “poorly soluble” and the stability [3] was “stable”.
